Results taken from US11179384B2, “Treatment of nonalcoholic fatty liver disease” (TAKEDA GMBH, priority 2016, dated 2021).

What was measured:
TNFα gene expression = assay: Hepatic gene expression in prophylactic NASH mouse model, TNFα (Taqman PCR); format: in vivo; details: LDLR-KO mice on mCDAA diet; 1, 3 and 10 mg/kg p.o. QD for 7 weeks; liver mRNA
Experimental: (§1) Homozygous low-density lipoprotein receptor knockout (LDLR-KO) mice were fed with chow or modified choline deficient, L-amino acid-defined (mCDAA) diet (A08111307, Research Diets, USA). After 1 week under chow or mCDAA diet, the mice were orally dosed with Compound A (1, 3 and 10 mg/5 ml/kg, QD, n=10; suspension in 0.5 w/v % methylcellulose suspension) for 7 weeks.
(§2) In addition prophylactic effects of Compound A on hepatic gene expression were evaluated. After total RNA was extracted from liver, cDNA was amplified using High-Capacity cDNA Reverse Transcription Kit (ABI 4368813), and target gene mRNA was measured using Taqman PCR. The target gene expression level was normalized by GAPDH.

Homozygous LDLR-KO mice = assay: Prophylactic effects in a mouse model of NASH (LDLR-KO mice, mCDAA diet); format: in vivo; details: LDLR-KO mice on mCDAA diet, 1, 3 and 10 mg/kg p.o. QD for 7 weeks
Experimental: Prophylactic effects of Compound A on parameters such as a) hepatic fibrosis formation, b) hepatic triglyceride formation and c) plasma ALT reduction were examined in a rodent model of NASH.
as §1

ob/ob mice = assay: Insulin tolerance test (insulin sensitivity) in ob/ob mice; format: in vivo; details: 29 days
Experimental: Male 5 weeks old ob/ob mice (B6.Cg-Lep^ob/J, genotype: Lep^ob/Leb^ob) and age-matched male lean mice (B6.Cg-Lep^ob/J, genotype: Lep^ob/+ * or Leb^+/+) were purchased from Charles River Laboratories, Japan Inc. All mice were fed with a normal chow (CE-2, CLEA Japan) and allowed free access to tap water. The animals were housed in a room with controlled temperature (23±1° C.), humidity (55±10%) and lightning (lights from 07:00 to 19:00). All experiments were approved by the Institutional Animal Care and Use Committee of Shonan Research Center, Takeda Pharmaceutical Company ltd (Japan).
All mice were housed individually in animal cages and used for the study at 7 weeks of age after 2 weeks of acclimation period. Blood samples were collected from the tail vein. Heparin and 2%-EDTA were used to inhibit the coagulation of the blood. Plasma was obtained by centrifugation. Plasma levels of glucose were measured using the automatic analyzer 7180 (Hitachi, Japan). Vehicle (0.5 w/v % methylcellulose, 10 ml/kg) and Compound A (3 and 10 mg/kg suspended in 0.5% methylcellulose solution) were orally administered once daily. After 28 days of administration, the insulin tolerance test (ITT) was performed. Mice were fasted for 6 h and then intraperitoneally administered with insulin (Novolin R, NovoNordisk) at a dose of 0.5 unit/5 ml/kg. Blood samples were collected from tail vein before and 15, 30, 60 and 120 min after the insulin administration. Plasma glucose (PG) level and ITT were measured using the method described above. […] AUC0-120 min of plasma glucose level was calculated using the following formula; [{(0 min PG)+(15 min PG)}×15+{(15 min PG)+(30 min PG)}×15+{(30 min PG)+(60 min PG)}×30+{(60 min PG)+[…]}×60]/2.
Data are expressed as mean and standard deviation (n=8 for ob/ob mice and n=5 for lean mice). The dose response trends of Compound A were assessed by one-tailed Williams' test or Shirley-Williams test. […] For evaluation of the effects of pioglitazone, statistical differences between vehicle and pioglitazone treated groups were analyzed with Student's t-test or Aspin-Welsh test. […]

Female db/db mice = assay: HbA1c, 4 weeks treatment in db/db mice; format: in vivo; details: 28 days, vehicle 9.06%
Experimental: Female db/db mice were purchased from Taconic (Lille Skensved, Denmark) at 5-6 weeks of age and were maintained under standard conditions (5 animals/cage; 12 h light-dark cycle; room temperature of 22±2° C.; relative humidity of 60±15%). All mice had free access to water and standard chow (Provimi Kliba, Kaiseraugst, Switzerland). Four days upon arrival animals were randomized based on body weight and levels of glycated hemoglobin 1c (HbA1c). At 7 weeks of age, animals were treated daily by oral gavage with vehicle (4% methylcellulose) or with Compound A (composed in aqueous 4% methylcellulose) using doses of 1, 3 and 10 mg/kg s.i.d. (doses related to free base). The required dose was applied in a volume of 10 ml/kg body weight. Each dose group consisted of 10 animals. At the end of the treatment period plasma samples were isolated for determination of HbA1c levels. All experimental procedures were conducted according to the German Animal Protection Law.
HbA1c was analyzed from tail-tip-blood (HbA1c determination before treatment) as well as from blood collected from the retro-orbital venous plexus (HbA1c determination after 4 weeks treatment) using the Hemoglobin A1c Test (Siemens, Bad Nauheim, Germany).
Statistical analysis: Values are presented as means±SEM. Statistical differences were determined using one-way-ANOVA followed by a post-hoc analysis with Dunnet's correction (GraphPad Prism).

[1] = system: tissue inhibitor of metalloproteases-1 (TIMP-1) gene expression; assay: Hepatic gene expression in prophylactic NASH mouse model, TIMP-1 (Taqman PCR); format: in vivo; details: LDLR-KO mice on mCDAA diet; 1, 3 and 10 mg/kg p.o. QD for 7 weeks; liver mRNA
Experimental: as §1, §2

[2] = system: TNFα gene expression in THP-1 cells; assay: Anti-inflammatory effect in THP-1 cells (LPS-induced TNFα gene expression); format: cell-based, human; details: PMA-treated THP-1 cells; 0.0001-1 μM, LPS 1 ng/mL, forskolin 0.1 μM, 5 hours
Experimental: Anti-inflammatory effect of Compound A was evaluated by gene expression of TNFα induced by LPS in THP-1 cells, a human monocytic cell line.
THP-1 cells (ATCC) were suspended in RPMI medium containing 10% FBS and 50 ng/mL PMA (2.5×10^5 cells/mL) and seeded on 96 well plates. Fourty-eight hours after the seeding, the medium was exchanged to serum-free RPMI medium. Three hours after the exchange, Compound A (0, 0.0001, 0.001, 0.01, 0.1 and 1 μM), LPS (1 ng/mL), and forskolin (0.1 μM) were added to the THP-1 cells. After the 5-hours incubation, total RNA was extracted from cell lysate using RNeasy 96 Kit (QIAGEN 74182). cDNA was amplified using High-Capacity cDNA Reverse Transcription Kit (ABI 4368813), and target gene mRNA was measured using Taqman PCR. The target gene expression level was normalized by GAPDH. The experiment was repeated 5 times.

CCOc1cc2c(cc1OC)C(c1ccc(=O)n(C)c1)=N[C@@H]1CC[C@@H](O)C[C@H]21 [Compound A, 5-((2R,4aR,10bR)-9-Ethoxy-2-hydroxy-8-methoxy-1,2,3,4,4a,10b-hexahydro-phenanthridin-6-yl)-1-methyl-1H-pyridin-2-one] was tested, and the “hepatic inflammatory TNFα gene expression (normalized by GAPDH)” value (TNFα gene expression) was “dose-dependent reduction”, the Body weight (Homozygous LDLR-KO mice) was “slightly decreased” and the “Hepatic triglyceride (TG) content” value (Homozygous LDLR-KO mice) was “significantly reduced”. For the same molecule, the Liver weight (Homozygous LDLR-KO mice) was “dose dependently decreased”, the “epididymal white adipose tissue (surrogate for body fat mass)” value (Homozygous LDLR-KO mice) was “dose dependently decreased” and the food intake (Homozygous LDLR-KO mice) was “no change”. For the same molecule, the “plasma ALT levels” value (Homozygous LDLR-KO mice) was “significantly reduced”, the hepatic fibrosis area (Homozygous LDLR-KO mice; started after 1 week of diet) was “dose-dependent reduction” and the “insulin-stimulated plasma glucose (PG) reduction at 60 min” value (ob/ob mice; 10 mg/kg/day p.o., ITT insulin 0.5 unit/kg i.p., vs vehicle) was “significantly enhanced”. For the same molecule, the “AUC of PG level (AUC0-120 min)” value (ob/ob mice; 3 and 10 mg/kg/day p.o., ITT, statistical significance at 10 mg/kg/day) was “dose-dependently decreased”, the “declines in plasma glucose level at 60 min from the zero time value” (ob/ob mice; 3 and 10 mg/kg/day p.o., ITT, vs vehicle) was “significantly greater” and the “mean HbA1c” value (Female db/db mice; 1 mg/kg p.o. daily, 1 mg/kg) was 7.27%. For the same molecule, the “mean HbA1c” value (Female db/db mice; 3 mg/kg p.o. daily, 3 mg/kg) was 7.06%, the “mean HbA1c” value (Female db/db mice; 10 mg/kg p.o. daily, 10 mg/kg) was 6.16% and the “hepatic TIMP-1 gene expression (normalized by GAPDH)” value [1] was “dose-dependent reduction”. For the same molecule, the “LPS-induced TNF-α gene expression in THP-1 cells” value [2] was “dose-dependently suppressed”.
